# Data: patent publication US20040180417A1, “Secretase/sheddase with asp-ase activity on the beta-site app-cleaving enzyme (bace, asp2, memepsin2)” (priority 2000, published 2004)
# Starred links: 1 amine or outer side, 2 acyl side, 3 side chain; linkers in the order of their positions; H or OH if unused. Non-standard residues stand in square brackets, D forms with d. Residues, ends and D or L forms follow the SMILES beside them. *: point of attachment. X1 = CC(N[*:1])C(=O)C(F)(F)C(=O)[*:2]; Cbz = O=C(OCc1ccccc1)*; Boc = CC(C)(C)OC(=O)*; CH2F = FC*
# Columns and labels:
# BACE = biological target: T1, BACE (Mus musculus, UniProt P56818); experiment: In vitro β-secretase activity on a 20 aa synthetic βAPPSW peptide (RP-HPLC); format: biochemical
# T1 construct: TDEST454; FLAG (DYKDDDDK), inserted just after the signal peptide cleavage site (after Ala19) (N); made in house; host or cells: HK293 cells, transiently transfected; 10-20 fold-concentrated medium
# BACE secretase/sheddase = BACE secretase/sheddase activity (BACE C-terminal fragments) in Neuro 2a cells; format: cell-based
# Experimental: (§1) FIG. 8: [A] Neuro 2a APPSW cells were transiently transfected with cDNA for [BACEF]FG. Cells were labeled with ^35S-Met for 3 hrs in the absence (−, DMSO control) or presence of 100 uM of a substrate based γ-secretase inhibitor (+γ-sec I, DFK-167 Enzyme Systems products). Cell lysates were immunoprecipitaed with FG antibodies, reduced and analyzed by SDS-PAGE on 8% tricine gels. Cell lysates [B] and media [C] were immunoprecipited with antibody APP711-03 and analyzed by SDS-PAGE on 8% tricine gels. [D] Media was immunoprecipited with the 1-40 Aβ antibody and analyzed on a 14% tricine gel. The exposure time was 3 days.
# Transfections and biosynthetic analyses—All transfections were done on 2−4×10^5 HK293 cells using Effectene (Qiagen) and a total of 1-1.5 μg of BACE contruct cDNAs subcloned into the vector pIRES2-EGFP. Two days post-transfection the cells were washed and then pulse-incubated for various times with either 200 μCi/ml of [^35S]Met; 400 μCi/ml Na2[^35SO4], [^3H]Leu, [^3H]Arg, [^3H]Ser; or 1 mCi/ml [^3H]palmitate EN) (20). Pulse-chase experiments with [^35S]Met were carried out as previously described (21). Cells were lysed in immunoprecipitation buffer [150 mM NaCl, 50 mM Tris-HCl pH 6.8, 0.5% NP40, 0.5% sodium deoxycholate and a protease inhibitor cocktail (Roche Diagnostics). The lysates and media were then prepared for immunoprecipitations as reported (22). The monoclonal antibodies used were directed against either the FL (Flag-M2; 1:500 dilution; Stratagene) or V5 (1:1000 dilution; Invitrogen) epitopes. Rabbit polyclonal antisera included those directed against aa 1-16 of human Aβ (produced in laboratory, dilution 1:200); anti-β-amyloid, recognizing mostly the C-terminal part of Aβ40 (A8326, dilution 1:200, Sigma); and FCA 18, recognizing all peptides starting with the Asp at the N-terminus of Aβ (23). Immunoprecipitates were resolved on SDS-PAGE (either 8% or 14% tricine gels) and autoradiographed (21). All PC inhibitor proteins were cloned in pcDNA3 (Invitrogen), including those of α1-PDX (8); the preprosegments of furin, PC7 (24), PC5 (25), SKI-1 (26,27); and wild type (α2-M) and furin-site mutated (α2-MG-F) α2-macroglubulin (28).
# C-terminal processing of BACE—In order to further characterize the nature of apparent C-terminal cleaved BACE fragments (FIG. 5C), the analysis of [BACEF]FG fragments immunoprecipitated with antiserum to Flag from HK293 cells were repeated. In addition to the 6 kDa fragment noted in FIG. 5C, fragments of 34, 15, and 11 kDa are apparent (FIG. 7). […] In addition, the intensity of the 11 and 6 kDa bands appear to diminish. It was expected that some of these BACE fragments would be disulfide linked, since it is known that the six Cys residues in the ectodomain form three intramolecular disulfide linkages (Cys^216-Cys^420, Cys^278-Cys^443, Cys^330-Cys^380) (41). The 34, 15, 11 and 6 kDa BACE fragments are also apparent when [BACEF]FG is expressed in Neuro 2a cells (FIG. 8). The relative levels of the 11 kDa fragment compared to the other cleaved fragments of BACE appear lower in Neuro 2a compared to HK293 cells. In any case, the sites of ectodomain cleavage are apparently the same in the two cell types. […] The significance of an apparent reduction in the level of the 6 kDa BACE fragment is unknown.
# γ-secretase = experiment: βAPP processing (Aβ, C99) in Neuro 2a APPSW cells; format: cell-based; conditions: 100 uM inhibitor, 3 hrs
# Experimental: as §1
# C-terminal processing of BACE—In order to further characterize the nature of apparent C-terminal cleaved BACE fragments (FIG. 5C), the analysis of [BACEF]FG fragments immunoprecipitated with antiserum to Flag from HK293 cells were repeated. In addition to the 6 kDa fragment noted in FIG. 5C, fragments of 34, 15, and 11 kDa are apparent (FIG. 7). […] In addition, the intensity of the 11 and 6 kDa bands appear to diminish. It was expected that some of these BACE fragments would be disulfide linked, since it is known that the six Cys residues in the ectodomain form three intramolecular disulfide linkages (Cys^216-Cys^420, Cys^278-Cys^443, Cys^330-Cys^380) (41). The 34, 15, 11 and 6 kDa BACE fragments are also apparent when [BACEF]FG is expressed in Neuro 2a cells (FIG. 8). […]
# [proBACES]FG/V5 = In vitro PC-mediated processing of proBACES (Western blot); format: biochemical, mouse; conditions: equivalent hydrolytic activities of PCs, 1-4 hours incubation
# proBACE = experiment: Exit of proBACE from the ER in HK293 cells (3h [35S]Met pulse); format: cell-based, human; conditions: 90 μM BFA or 250 nM bafilomycin, 37° C.
# Experimental: FIG. 5: HK293 cells were transiently transfected with cDNAs coding for either [A,B] (BDNF+βAPPSW) [CTL] or ([BACEF]FG+βAPPSW), [C] [BACEF]FG or [BACES]FG. The cells were pulse-labeled for 3h with [^35S]Met at either 37° C. in the absence or presence of 90 μM BFA or 250 nM bafilomycin or at 20° C. Cell lysates were immunoprecipitated with either [A] the FG mAb or [B] the 1-16 Aβ antibody, and analysed by SDS-PAGE on 8% tricine gels. [C] FG antibody, and analysed by SDS-PAGE on 8% tricine gels. The arrowhead point to an ˜6 kDa intracellular stub of BACEF.
# Transfections and biosynthetic analyses—All transfections were done on 2−4×10^5 HK293 cells using Effectene (Qiagen) and a total of 1-1.5 μg of BACE contruct cDNAs subcloned into the vector pIRES2-EGFP. Two days post-transfection the cells were washed and then pulse-incubated for various times with either 200 μCi/ml of [^35S]Met; 400 μCi/ml Na2[^35SO4], [^3H]Leu, [^3H]Arg, [^3H]Ser; or 1 mCi/ml [^3H]palmitate EN) (20). Pulse-chase experiments with [^35S]Met were carried out as previously described (21). Cells were lysed in immunoprecipitation buffer [150 mM NaCl, 50 mM Tris-HCl pH 6.8, 0.5% NP40, 0.5% sodium deoxycholate and a protease inhibitor cocktail (Roche Diagnostics). The lysates and media were then prepared for immunoprecipitations as reported (22). […]
# [1] = test system: proBACE processing by PC-like enzyme; experiment: proBACE processing in HK293 cells co-expressing [BACEF]FG/V5 and PC-inhibitors (pulse-chase, immunoprecipitation, SDS-PAGE); format: cell-based, human; conditions: 15 min [35S]Met pulse, chase 1 h or 2h; FG epitope; α1-PDX co-transfected or BFA present
# Experimental: FIG. 1: HK293 cells were transiently co-transfected with either ([BACEF]FG/V5+BDNF) [control, CTL] (A,C) or ([BACEF]FG/V5+α1-PDX) (B,D) cDNAs. Two days post-transfections the cells were pulse-labeled in the absence or presence of […] BFA for 15 min with [^35S]Met and then chased for 1 or 2h. Cell lysates were immunoprecipitated with either the FG or V5 mAbs and analysed by SDS-PAGE on 8% tricine gels. The migration position of the 53 kDa molecular mass standard and those of proBACE (pBACE) and BACE are emphasized.
# FIG. 2: [A] HK293 cells were transiently co-transfected with cDNAs coding for either ([BACEF]FG/V5+BDNF) [control, CTL], ([BACEF-R45A]FG/V5+BDNF) or ([BACEF-R42A]FG/V5+BDNF) or ([BACEF]FG/V5+either α1-PDX, the prosegments of furin, PC5, PC7, SKI-1, furin-mutated (α2M-F) or wild type (α2M) α2-macroglobulin. The cells were pulse-labeled for 20 min with [^35S]Met and then chased for 90 min. Cell lysates were immunoprecipitated with the FG mAb and analysed by SDS-PAGE on 8% tricine gels. [B] HK293 cells were transiently co-transfected with cDNAs coding for either ([BACEF]FG/V5+BDNF) [CTL], ([BACEF]FG/V5+furin) or ([BACEF]FG/V5+α1-PDX). The cells were then pulse-labeled for 2h with Na2[^35SO4]. Cell lysates were immunoprecipitated with the FG or V5 mAbs and analysed by SDS-PAGE on 8% tricine gels. […]
# T1 sequence (P56818 46-457 limits assumed): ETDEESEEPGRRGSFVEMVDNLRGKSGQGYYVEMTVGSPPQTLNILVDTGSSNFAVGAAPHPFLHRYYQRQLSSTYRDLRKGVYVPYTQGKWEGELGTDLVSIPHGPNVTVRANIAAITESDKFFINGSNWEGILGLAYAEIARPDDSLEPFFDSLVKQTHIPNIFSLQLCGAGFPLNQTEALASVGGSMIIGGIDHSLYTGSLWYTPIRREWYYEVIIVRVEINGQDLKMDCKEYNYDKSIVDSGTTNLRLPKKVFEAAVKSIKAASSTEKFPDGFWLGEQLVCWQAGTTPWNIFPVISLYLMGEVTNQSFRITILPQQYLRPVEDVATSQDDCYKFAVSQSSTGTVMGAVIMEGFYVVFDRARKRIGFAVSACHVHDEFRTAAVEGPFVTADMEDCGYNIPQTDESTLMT
molecule,measurement,setting,value
THLGIRLPLRSGLAGPPLGLRLPR [proBACE 22-45],inhibition of the Swedish peptide substrate cleavage,"BACE; 20 μM peptide pre-incubated with active BACE, substrate at 10 μM",20%
CC(C)C[C@H](CC(=O)NO)C(=O)N[C@@H](Cc1ccc2ccccc2c1)C(=O)N[C@@H](C)C(=O)NCCN [TAPI-1],inhibition of BACE secretase/sheddase activity,BACE secretase/sheddase; Neuro 2a cells,did not inhibit
CNC(=O)[C@H](Cc1c[nH]c2ccccc12)NC(=O)[C@@H](CC(=O)NO)CC(C)C [GM6001],inhibition of BACE secretase/sheddase activity,BACE secretase/sheddase; Neuro 2a cells,did not inhibit
CCC(C)C(NC(=O)C(NC(=O)OC(C)(C)C)C(C)C)C(=O)NC(C)C(=O)C(F)(F)C(=O)NC(C(=O)NC(C(=O)OC)C(C)CC)C(C)C (stereo not shown) (Boc-VI[X1]VI-OMe; configuration not given here),"levels of BACE fragments (34, 15 and 11 kDa)","BACE secretase/sheddase; Neuro 2a APPSW cells transfected with [BACEF]FG, 100 uM inhibitor, 3 hrs",largely unchanged
same,inhibition of BACE secretase/sheddase activity,BACE secretase/sheddase; Neuro 2a cells,does not inhibit
same,cellular C99 levels,γ-secretase; cell lysates,elevates
same,Aβ formation,γ-secretase; media,completely inhibits
furin,increase in the level of BACE activity,"BACE; pre-incubation of BACES-containing media with furin, four separate experiments",50±3%
same,time to completely process proBACE into BACE,[proBACES]FG/V5,≤ 2 h
CO/C1=C\C(C)=C\[C@@H](C)[C@@H](O)[C@@H](C)C/C(C)=C/C=C/[C@H](OC)[C@@H]([C@@H](C)[C@@H](O)[C@H](C)[C@@]2(O)C[C@@H](O)[C@H](C)[C@@H](C(C)C)O2)OC1=O [bafilomycin],escape of 66 kDa proBACE from the ER,proBACE,retarding effect
"C[C@H]1CCC/C=C/[C@@H]2C[C@H](O)C[C@H]2[C@H](O)/C=C/C(=O)O1 [BFA, brefeldin A]",72 kDa proBACE form,[1],not apparent
same,escape of 66 kDa proBACE from the ER,proBACE,prevented
COC(=O)C[C@H](NC(=O)[C@H](C)NC(=O)[C@@H](NC(=O)OCc1ccccc1)C(C)C)C(=O)CF [Z-Val-Ala-Asp(OMe)-CH2F] (Cbz-Val-Ala-Asp(OMe)-CH2F),effect on BACE secretase/sheddase activity,"BACE secretase/sheddase; Neuro 2a cells, 100 uM",had no effect
